Here are results for 28 compounds from US8895578B2, “Carboxamide, sulfonamide and amine compounds and methods for using the same” (Rigel Pharmaceuticals, Inc., priority 2007, dated 2014).

The target in the experiment is AMPK. Nature of the experiment: AMPK activation, enzyme-linked immunosorbent assay. Format: biochemical. The conditions noted are these: Table 2, ELISA. As to the method:
Compounds 1-54 were assayed for their ability to activate AMPK using an enzyme-linked immunosorbent assay.
Compounds 55-62 of Table 1 were assayed for their ability to activate AMPK using an enzyme-linked immunosorbent assay.
Compounds 63-66 of Table 1 were assayed for their ability to activate AMPK using an enzyme-linked immunosorbent assay.
Compounds 67-71 of Table 1 were assayed for their ability to activate AMPK using an enzyme-linked immunosorbent assay.
Compound 72 of Table 1 was assayed for its ability to activate AMPK using an enzyme-linked immunosorbent assay.
(In general: ELISA stands for enzyme-linked immunosorbent assay.)

Turning to `O=C(NC1CCN(S(=O)(=O)c2cccnc2)CC1)c1ccc2[nH]c3c(c2c1)CN(Cc1ccc(C(F)(F)F)cc1)CC3` [Compound 22], the EC50 – broadly, the concentration giving half of the maximal effect – lay within 0.5 to 1 µM. Next, `O=C(NC1CCN(S(=O)(=O)c2ccc(C(F)(F)F)cc2)CC1)c1ccc2[nH]c3c(c2c1)CN(Cc1ccc(C(F)(F)F)cc1)CC3` [Compound 23, 2-(4-(trifluoromethyl)benzyl)-N-(1-(4-(trifluoro-methyl)phenylsulfonyl)piperidin-4-yl)-2,3,4,5-tetrahydro-1H-pyrido[4,3-b]indole-8-carboxamide]: 1 to 5 µM; `N#Cc1ccc(CN2CCC(NC(=O)c3ccc4[nH]c5c(c4c3)CN(S(=O)(=O)c3ccc(C(F)(F)F)cc3)CC5)CC2)cc1` [Compound 24, N-(1-(4-cyanobenzyl)piperidin-4-yl)-2-(4-(trifluoromethyl)phenyl-sulfonyl)-2,3,4,5-tetrahydro-1H-pyrido[4,3-b]indole-8-carboxamide]: 1 to 5 µM. On to `N#Cc1ccc(CN2CCC(NC(=O)c3ccc4[nH]c5c(c4c3)CN(S(=O)(=O)c3ccc(C#N)cc3)CC5)CC2)cc1` [Compound 25, N-(1-(4-cyanobenzyl)piperidin-4-yl)-2-(4-cyanophenylsulfonyl)-2,3,4,5-tetrahydro-1H-pyrido[4,3-b]indole-8-carboxamide], for which the EC50 lay in the range of 10 to 50 µM. On to `N#Cc1ccc(CN2CCC(NC(=O)c3ccc4[nH]c5c(c4c3)CN(S(=O)(=O)c3cccnc3)CC5)CC2)cc1` [Compound 26, N-(1-(4-cyanobenzyl)piperidin-4-yl)-2-(pyridin-3-ylsulfonyl)-2,3,4,5-tetrahydro-1H-pyrido [4,3-b]indole-8-carboxamide], for which the EC50 lay within 10 to 50 µM.

For the compound `N#Cc1ccc(NC(=O)N2CCC(NC(=O)c3ccc4[nH]c5c(c4c3)CN(Cc3ccc(C(F)(F)F)cc3)CC5)CC2)cc1` [Compound 27, N-(1-(4-cyanophenyl-carbamoyl)piperidin-4-yl)-2-(4-(trifluoro-methyl)benzyl)-2,3,4,5-tetrahydro-1H-pyrido [4,3-b]indole-8-carboxamide], the EC50 lay within 1 to 5 µM. On to `O=C(NC1CCN(S(=O)(=O)c2ccc(F)cc2)CC1)c1ccc2[nH]c3c(c2c1)CN(Cc1ccc(C(F)(F)F)cc1)CC3` [Compound 28, N-(1-(4-fluorophenyl-sulfonyl)piperidin-4-yl)-2-(4-(trifluoromethyl)benzyl)-2,3,4,5-tetrahydro-1H-pyrido[4,3-b]indole-8-carboxamide], for which the EC50 was in the range of 1 to 5 µM. For the compound `N#Cc1cccc(S(=O)(=O)N2CCC(NC(=O)c3ccc4[nH]c5c(c4c3)CN(Cc3ccc(C(F)(F)F)cc3)CC5)CC2)c1` [Compound 29, N-(1-(3-cyanophenyl-sulfonyl)piperidin-4-yl)-2-(4-(trifluoromethyl)benzyl)-2,3,4,5-tetrahydro-1H-pyrido[4,3-b]indole-8-carboxamide], the concentration for a half-maximal effect (EC50) was 1 to 5 µM.

In turn, `O=C(NC1CCN(S(=O)(=O)c2cccc(C(F)(F)F)c2)CC1)c1ccc2[nH]c3c(c2c1)CN(Cc1ccc(C(F)(F)F)cc1)CC3` [Compound 30, 2-(4-(trifluoromethyl)benzyl)-N-(1-(3-(trifluoro-methyl)phenylsulfonyl)piperidin-4-yl)-2,3,4,5-tetrahydro-1H-pyrido [4,3-b]indole-8-carboxamide] yielded an EC50 of 1 to 5 µM. `O=C(NC1CCN(S(=O)(=O)c2ccc(Cl)cc2)CC1)c1ccc2[nH]c3c(c2c1)CN(Cc1ccc(C(F)(F)F)cc1)CC3` [Compound 32, N-(1-(4-chlorophenyl-sulfonyl)piperidin-4-yl)-2-(4-(trifluoromethyl)benzyl)-2,3,4,5-tetrahydro-1H-pyrido[4,3-b]indole-8-carboxamide] showed an EC50 of 1 to 5 µM. Next, `O=C(NC1CCN(C(=O)Nc2ccc(C(F)(F)F)cc2)CC1)c1ccc2[nH]c3c(c2c1)CN(Cc1ccc(C(F)(F)F)cc1)CC3` [Compound 33, 2-(4-(trifluoromethyl)benzyl)-N-(1-(4-(trifluoro-methyl)phenylcarbamoyl)piperidin-4-yl)-2,3,4,5-tetrahydro-1H-pyrido[4,3-b]indole-8-carboxamide]: 1 to 5 µM.

In turn, `O=C(NC1CCN(S(=O)(=O)c2ccc(F)cc2)CC1)c1ccc2[nH]c3c(c2c1)CN(c1ccc(F)cc1)CC3` [Compound 35, 2-(4-fluorophenyl)-N-(1-(4-fluorophenylsulfonyl)piperidin-4-yl)-2,3,4,5-tetrahydro-1H-pyrido[4,3-b] indole-8-carboxamide] yielded an EC50 of 10 to 50 µM. As for `O=C(NC1CCN(Cc2cccnc2)CC1)c1ccc2[nH]c3c(c2c1)CN(c1ccc(F)cc1)CC3` [Compound 36, 2-(4-fluorophenyl)-N-(1-(pyridin-3-ylmethyl)piperidin-4-yl)-2,3,4,5-tetrahydro-1H-pyrido[4,3-b]indole-8-carboxamide], the EC50 was over 100 µM. Turning to `O=C(NC1CCN(Cc2ccc(C(F)(F)F)cc2)CC1)c1ccc2[nH]c3c(c2c1)CN(c1ccc(F)cc1)CC3` [Compound 37, 2-(4-fluorophenyl)-N-(1-(4-(trifluoromethyl)benzyl)piperidin-4-yl)-2,3,4,5-tetrahydro-1H-pyrido[4,3-b] indole-8-carboxamide], the 50% effective concentration (EC50) was 5 to 10 µM. With `CC(C)(C)OC(=O)N1CCC(NC(=O)c2ccc3[nH]c4c(c3c2)CN(c2ccc(F)cc2)CC4)CC1` [Compound 38, tert-butyl 4-(2-(4-fluorophenyl)-2,3,4,5-tetrahydro-1H-pyrido[4,3-b]indole-8-carboxamido) piperidine-1-carboxylate], the concentration giving a half-maximal response (EC50) is 10 to 50 µM. The figure for `O=C(NC1CCN(C(=O)c2ccc(F)cc2)CC1)c1ccc2[nH]c3c(c2c1)CN(c1ccc(F)cc1)CC3` [Compound 39, N-(1-(4-fluorobenzoyl)piperidin-4-yl)-2-(4-fluorophenyl)-2,3,4,5-tetrahydro-1H-pyrido [4,3-b]indole-8-carboxamide] is 10 to 50 µM; for `O=C(NC1CCN(C(=O)c2cccnc2)CC1)c1ccc2[nH]c3c(c2c1)CN(c1ccc(F)cc1)CC3` [Compound 40, 2-(4-fluorophenyl)-N-(1-nicotinoylpiperidin-4-yl)-2,3,4,5-tetrahydro-1H-pyrido[4,3-b]indole-8-carboxamide] it is over 100 µM.

`O=C(NC1CCN(C(=O)c2ccc(C(F)(F)F)cc2)CC1)c1ccc2[nH]c3c(c2c1)CN(c1ccc(F)cc1)CC3` [Compound 41, 2-(4-fluorophenyl)-N-(1-(4-(trifluoromethyl)benzoyl)piperidin-4-yl)-2,3,4,5-tetrahydro-1H-pyrido[4,3-b] indole-8-carboxamide] registered an EC50 of 10 to 50 µM. Take `CC(C)(C)OC(=O)N1CCC(NC(=O)c2ccc3[nH]c4c(c3c2)CN(Cc2ccc(C(N)=O)cc2)CC4)CC1` [Compound 43, tert-butyl 4-(2-(4-carbamoyl-benzyl)-2,3,4,5-tetrahydro-1H-pyrido[4,3-b]indole-8-carboxamido)piperidine-1-carboxylate]: the 50% effective concentration (EC50) was over 100 µM. `N#Cc1ccc(CN2CCC(NC(=O)c3ccc4[nH]c5c(c4c3)CN(Cc3ccc(C(N)=O)cc3)CC5)CC2)cc1` [Compound 44, 2-(4-carbamoylbenzyl)-N-(1-(4-cyanobenzyl)piperidin-4-yl)-2,3,4,5-tetrahydro-1H-pyrido[4,3-b]indole-8-carboxamide] displayed an EC50 of 10 to 50 µM.

On to `NC(=O)c1ccc(CN2CCc3[nH]c4ccc(C(=O)NC5CCN(Cc6ccncc6)CC5)cc4c3C2)cc1` [Compound 45, 2-(4-carbamoylbenzyl)-N-(1-(pyridin-4-ylmethyl)piperidin-4-yl)-2,3,4,5-tetrahydro-1H-pyrido [4,3-b]indole-8-carboxamide], for which the EC50 was over 100 µM. On to `NC(=O)c1ccc(CN2CCc3[nH]c4ccc(C(=O)NC5CCN(C(=O)c6ccncc6)CC5)cc4c3C2)cc1` [Compound 46, 2-(4-carbamoylbenzyl)-N-(1-isonicotinoylpiperidin-4-yl)-2,3,4,5-tetrahydro-1H-pyrido[4,3-b]indole-8-carboxamide], for which the concentration giving a half-maximal response (EC50) was over 100 µM. `NC(=O)c1ccc(CN2CCc3[nH]c4ccc(C(=O)NC5CCN(Cc6ccc(C(F)(F)F)cc6)CC5)cc4c3C2)cc1` [Compound 47, 2-(4-carbamoylbenzyl)-N-(1-(4-(trifluoromethyl)benzyl)piperidin-4-yl)-2,3,4,5-tetrahydro-1H-pyrido[4,3-b]indole-8-carboxamide] registered an EC50 of 10 to 50 µM. `NC(=O)c1ccc(CN2CCc3[nH]c4ccc(C(=O)NC5CCN(Cc6ccc(F)cc6)CC5)cc4c3C2)cc1` [Compound 48, 2-(4-carbamoylbenzyl)-N-(1-(4-fluorobenzyl)piperidin-4-yl)-2,3,4,5-tetrahydro-1H-pyrido[4,3-b] indole-8-carboxamide]: the EC50 was over 100 µM. `NC(=O)c1ccc(CN2CCC(NC(=O)c3ccc4[nH]c5c(c4c3)CN(Cc3ccc(C(N)=O)cc3)CC5)CC2)cc1` [Compound 49, 2-(4-carbamoylbenzyl)-N-(1-(4-carbamoylbenzyl)piperidin-4-yl)-2,3,4,5-tetrahydro-1H-pyrido [4,3-b]indole-8-carboxamide] came in with an EC50 of over 100 µM. Consider `O=C(NC1CCN(Cc2ccncc2)CC1)c1ccc2[nH]c3c(c2c1)CN(Cc1ccc(C(F)(F)F)cc1)CC3` [Compound 50, N-(1-(pyridin-4-ylmethyl)piperidin-4-yl)-2-(4-(trifluoromethyl)benzyl)-2,3,4,5-tetrahydro-1H-pyrido[4,3-b]indole-8-carboxamide], for which the 50% effective concentration (EC50) was under 0.5 µM. Next, `O=C(NC1CCN(C(=O)c2ccncc2)CC1)c1ccc2[nH]c3c(c2c1)CN(Cc1ccc(C(F)(F)F)cc1)CC3` [Compound 51, N-(1-isonicotinoyl-piperidin-4-yl)-2-(4-(trifluoromethyl)benzyl)-2,3,4,5-tetrahydro-1H-pyrido[4,3-b]indole-8-carboxamide]: 0.5 to 1 µM. `NC(=O)c1ccc(CN2CCC(NC(=O)c3ccc4[nH]c5c(c4c3)CN(Cc3ccc(C(F)(F)F)cc3)CC5)CC2)cc1` [Compound 52, N-(1-(4-carbamoylbenzyl)piperidin-4-yl)-2-(4-(trifluoromethyl)benzyl)-2,3,4,5-tetrahydro-1H-pyrido[4,3-b]indole-8-carboxamide]: the concentration for a half-maximal effect (EC50) lay in the range of 1 to 5 µM.
